Assay results: patent US9169509B2, “Topoisomerase 2b as a predictor of susceptibility to anthracycline-induced cardiotoxicity” (Board of Regents, The University of Texas System, priority 2013, dated 2015)

Columns and labels:
[1] = system: PGC-1α and PGC-1β promoters; assay: Chromatin immunoprecipitation with Top2b antibody at PGC-1 promoters; assay type: cell-based, mouse; conditions: HL-1 cells (DOX 2 h) and cardiomyocytes isolated 16 h after 25 mg/kg ip
Experimental: FIGS. 7a-e: a, b. PGC-1 expression in HL-1 cells. […] Expression was measured with RT-qPCR. c, d. CHiP analysis in HL-1 cells. HL-1 cardiomyocytes were treated with (right bars) or without (left bars) DOX ([…]) for 2 hrs and isolated for ChIP using the Top2β antibody. The eluted DNA and Input were PCR amplified to detect specific promoter regions represented in the schematic above the respective ChIP data. In the presence of DOX, the Top2b is readily bound to Region #1 and Region #3 of the PGC-1α promoter (c) and Region #1 and #2 of the PGC-1β promoter (d). e. CHiP study in cardiomyocytes. Cardiomyocytes were isolated from control (n=4) and Dox-treated (n=4) mice and subject to ChIP with the Top2b antibody. The data represent real-time PCR ratios for the fold-enrichment of Top2b at the respective promoters. Top2β binds the Region #1 of the PGC-1α and PGC-1β promoters efficiently following Dox treatment.
HL-1 cells were treated with or without DOX (1 μM) for 2 h and subsequently evaluated using the ChIP protocol as previously published (24-26). For ChIP assay on isolated cardiomyocytes, mice were treated with doxorubicin (25 mg/kg, ip) or drug vehicle. […] For each individual treatment sample, the eluted ChIP product was normalized to the Input product to rule out differences in total DNA quantities between control and Dox-treatment samples. […]

[2] = system: cardiomyocytes; assay: Microarray gene expression profiling with Ingenuity pathway analysis of cardiomyocytes isolated from doxorubicin-treated mice; assay type: in vivo, mouse
Experimental: Microarray-based Ingenuity pathway analysis was next used to study the effect of doxorubicin treatment in the Top2b^+/+ and Top2b^Δ/Δ heart in an unbiased way. Mice were treated with tamoxifen for 5 consecutive days. […] Cardiomyocytes were prepared from excised heart and mRNAs were extracted for microarray analysis. Ingenuity pathway analysis of microarray data based on expression changes (>1.5 fold) of 59,306 genes upon doxorubicin treatment identified perturbation (mainly activation) in p53 and β-adrenergic signaling pathways in Top2b^+/+ cardiomyocytes (left bars), but not in Top2bΔ/Δ cardiomyocytes (center bars) (FIG. 1a, FIG. 4a, and Table 1). No difference was found between untreated Top2b^+/+ and Top2b^Δ/Δ cardiomyocytes (right bars). Of particular interest is a 200 fold up-regulation of the transcript encoding p53DINP1, a p53-inducible gene that regulates apoptosis (Sohal et al., 2001) (FIG. 4b). There were also increases in the transcript of Apaf1, Bax, and Fas, genes important in the apoptosis pathway (Ogasawara et al., 1983) (FIG. 4c). Both p53DINP1, Apaf1, Bax, Mdm2, and Fas up-regulation were only observed in doxorubicin-treated Top2b^+/+, but not Top2b^Δ/Δ cardiomyocytes. This is consistent with the previous observation that doxorubicin and Top2b formed a DNA ternary cleavage complex to induce DNA double strand breaks (DSBs), leading to cell death (9).
To gain further insight into the pathogenesis of doxorubicin-induced cardiotoxicity, the transcriptome analysis was repeated 72 h following doxorubicin exposure. The Ingenuity pathway analysis of microarray data based on expression changes (>1.5 fold) of 59,306 genes upon doxorubicin treatment identified perturbation (mainly repression) in the mitochondria dysfunction and oxidative phosphorylation pathways in Top2b^+/+ cardiomyocytes (left bars), but not in Top2b^Δ/Δ cardiomyocytes (middle bars). No difference was found between untreated Top2b^+/+ and Top2b^Δ/Δ cardiomyocytes (right bars). There was a complete change in the ingenuity pathway profiles 72 h following doxorubicin exposure (FIGS. 1a,d). Early activation in the p53 pathway was replaced by mitochondrial dysfunction and oxidative phosphorylation pathways in the Top2b^+/+, but not Top2b^Δ/Δ cardiomyocytes (FIGS. 1a,d and Table 2). […] This was confirmed by qPCR of analysis of PGC-1α and PGC-1β transcripts (FIG. 1e). […] Consistent with the critical role exerted by PGC-1α and PGC-1β in mitochondrial biogenesis (Arany, Z. et al., 2006; Lai, L. et al., 2008), transcripts of key electron transport chains, such as Ndufa3 (NADH dehydrogenase 1 alpha subcomplex, 3, Complex1), Sdha (succinate dehydrogenase complex, subunit A, Complex II), and Atp5a (alpha subunit of Complex V) were decreased in the doxorubicin treated Top2b^+/+, but much less so in Top2b^Δ/Δ cardiomyocytes (FIG. 1e). […] Thus, in the presence of Top2b, doxorubicin caused decreases in transcripts of genes involved in the regulation of mitochondria biogenesis and function.
Total RNA was extracted from cardiomyocytes isolated from mouse heart 16 or 72 h after treatment with doxorubicin (25 mg/kg) or drug vehicle using TRIZOL reagent (Invitrogen), then purified with RNeasy Mini Kit (Qiagen) according to the manufacturer's instructions. Purified RNA samples were shipped on dry ice to Miltenyi Biotec Inc. for microarray analysis. Quality control of the sample RNA was performed by the company. Before hybridization, 100 ng of each sample RNA was used for T7-based amplification and Cy3 labeling. The hybridization procedure was performed according to the Agilent 60-mer oligo microarray processing protocol using the Agilent Gene Expression Hybridization Kit (Agilent Technologies). After an overnight hybridization (65° C.) the microarrays were washed and scanned using Agilent Microarray Scanner System (Agilent Technologies).

[3] = Top2b+/+ cardiomyocytes, 72 hrs after doxorubicin 25 mg/kg
[4] = wild type hearts, 72 h after doxorubicin, not in Top2b deleted

## COc1cccc2c1C(=O)c1c(O)c3c(c(O)c1C2=O)C[C@@](O)(C(=O)CO)C[C@@H]3O[C@H]1C[C@H](N)[C@H](O)[C@H](C)O1 [doxorubicin]
[1]
  Top2b binding to the promoter of the PGC-1α and PGC-1β genes in the presence of doxorubicin (ChIP): binds avidly
[2]; Top2b+/+ cardiomyocytes, 16 hrs after doxorubicin 25 mg/kg i.p.
  Up-regulated genes associated with p53 signaling pathway (expression change, genes listed in Table 1): Up-regulated genes (>1.5 fold) associated with p53 signaling pathway
[2]; [3]
  Down-regulated genes associated with mitochondrial dysfunction and oxidative phosphorylation pathways (genes listed in Table 2): Down-regulated Genes (>1.5 fold)
  Up-regulated genes associated with mitochondrial dysfunction and oxidative phosphorylation pathways (genes listed in Table 2): Up-regulatedGenes (>1.5 fold)
[2]; Top2bΔ/Δ cardiomyocytes, 16 hrs after doxorubicin 25 mg/kg i.p.
  Expression change of the genes identified in the p53 pathway: TP53INP1 is also called p53DINP1. The list was generated by Ingenuity software, and none of the genes identified in the p53 pathway had an expression change that reached 1.5 fold in Top2b^Δ/Δ cardiomyocytes.
[2]; Top2bΔ/Δ cardiomyocytes, 72 hrs after doxorubicin 25 mg/kg
  Expression change of the genes identified in the mitochondrial dysfunction and oxidative phosphorylation pathways: The list was generated by Ingenuity software, and none of the genes identified in the 2 pathways had an expression change that reached 1.5 fold in Top2b^Δ/Δ cardiomyocytes.
[2]; [4]
  PGC-1α downregulation: 1.5 fold
  PGC-1β downregulation: 1.5 fold
